For one test, the target named is T1, ADAMTS4 (Homo sapiens, UniProt O75173).
T1 construct: purchased R&D 4307-AD
T1 sequence (O75173 213-685 limits assumed): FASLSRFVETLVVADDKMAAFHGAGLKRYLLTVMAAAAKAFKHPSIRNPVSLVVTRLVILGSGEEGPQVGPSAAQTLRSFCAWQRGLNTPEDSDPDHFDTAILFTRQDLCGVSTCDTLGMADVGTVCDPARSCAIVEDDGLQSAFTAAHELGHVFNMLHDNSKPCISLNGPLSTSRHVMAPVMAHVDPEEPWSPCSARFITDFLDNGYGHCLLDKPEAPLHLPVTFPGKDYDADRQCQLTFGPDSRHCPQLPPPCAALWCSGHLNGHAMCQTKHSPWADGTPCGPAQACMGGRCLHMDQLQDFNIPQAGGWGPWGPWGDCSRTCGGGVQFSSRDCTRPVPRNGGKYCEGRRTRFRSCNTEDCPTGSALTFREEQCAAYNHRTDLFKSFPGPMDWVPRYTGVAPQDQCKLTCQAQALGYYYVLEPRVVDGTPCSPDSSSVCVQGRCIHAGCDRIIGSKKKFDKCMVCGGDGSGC
In words: Selectivity assay for ADAMTS-7 modulators (FRET), ADAMTS4. The conditions noted are these: 50 nM enzyme (R&D 4307-AD), 1 μM Dabcyl/Edans FRET substrate, 120 min at 32° C. The class given is biochemical. Put shortly:
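Enzyme in 50 mM Tris pH 7.5, 150 mM NaCl, 10 mM CaCl2, 0.05% Brij, preincubated with compound in DMSO; reaction started with FRET substrate. Fluorescence increase read after 120 min at 32° C; IC50 from percent inhibition versus compound concentration.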

In test [1] the target is T2, Purified recombinant ADAMTS-7 (rat prodomain/human catalytic domain, SEQ ID No. 01 or 02) (Homo sapiens, UniProt Q9UKP4).
T2 construct: rat ADAMTS-7 signal peptide + prodomain (rat 1-217, Q1EHB3) (N); 2xStrep tag (C); 6xHis tag (C); made in house; host or cells: Expi293 cells
T2 sequence (Q9UKP4 237-537): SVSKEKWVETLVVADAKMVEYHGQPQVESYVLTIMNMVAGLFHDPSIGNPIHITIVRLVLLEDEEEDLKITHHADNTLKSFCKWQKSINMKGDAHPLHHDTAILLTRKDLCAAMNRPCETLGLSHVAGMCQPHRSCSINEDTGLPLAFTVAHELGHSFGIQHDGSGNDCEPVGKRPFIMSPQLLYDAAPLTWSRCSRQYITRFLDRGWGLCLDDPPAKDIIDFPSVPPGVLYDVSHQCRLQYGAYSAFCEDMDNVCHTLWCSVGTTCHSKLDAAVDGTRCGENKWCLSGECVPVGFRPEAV
In words: Assay for ADAMTS-7 enzymatic activity (FRET substrate cleavage). The conditions noted are these: FRET substrate SEQ ID No. 11, 120 min at 32° C.; read-out: ADAMTS7-IC50. The class given is biochemical. Put shortly: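 About 20 nM enzyme in 20 mM HEPES pH 8.0, 150 mM NaCl, 5 mM CaCl2, 0.004% Brij and 10 μM ZnCl2 was mixed with compound in DMSO and a QXL520-quenched FRET peptide from thrombospondin-1 (275-289). After 120 min at 32 °C, fluorescence was read at 485/520 nm. IC50 came from percent inhibition versus concentration.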

In general, IC50 refers to the point on the concentration scale where inhibition reaches its midpoint.

Take `Cn1ccnc1C1(CNC(=O)c2cnn(-c3ccccc3)n2)NC(=O)NC1=O` (stereo not drawn) [Example 142, ent-N-{[4-(1-methyl-1H-imidazol-2-yl)-2,5-dioxoimidazolidin-4-yl]methyl}-2-phenyl-2H-1,2,3-triazole-4-carboxamide]: the IC50 was 0.32 µM at ADAMTS4 and 0.004 µM in test [1].

Take `Cn1ccnc1C1(CNC(=O)c2cnn(-c3cc(F)c(F)c(F)c3)n2)NC(=O)NC1=O` (stereo not drawn) [Example 146, ent-N-{[4-(1-methyl-1H-imidazol-2-yl)-2,5-dioxoimidazolidin-4-yl]methyl}-2-(3,4,5-trifluorophenyl)-2H-1,2,3-triazole-4-carboxamide]: the IC50 on ADAMTS4 was 0.108 µM; in test [1], 0.003 µM.

Take `O=C1NC(=O)C(CNC(=O)c2cnn(-c3ccc(F)cc3)n2)(c2cscn2)N1` (stereo not drawn) [Example 148, ent-N-{[2,5-dioxo-4-(1,3-thiazol-4-yl)imidazolidin-4-yl]methyl}-2-(4-fluorophenyl)-2H-1,2,3-triazole-4-carboxamide]: the IC50 on ADAMTS4 came out at 2.5 µM; in test [1], 0.012 µM.

In the case of `O=C1NC(=O)[C@](CNC(=O)c2cnn(-c3ccc(F)cc3Cl)n2)(C2CC2)N1` [Example 151, 2-(2-chloro-4-fluorophenyl)-N-{[(4R)-4-cyclopropyl-2,5-dioxoimidazolidin-4-yl]methyl}-2H-1,2,3-triazole-4-carboxamide], the IC50 against ADAMTS4 amounted to 17 µM; in test [1], 0.32 µM.

In the case of `O=C1NC(=O)[C@](CNC(=O)c2cnn(-c3ccc(Cl)cc3F)n2)(C2CC2)N1` [Example 160, 2-(4-chloro-2-fluorophenyl)-N-{[(4R)-4-cyclopropyl-2,5-dioxoimidazolidin-4-yl]methyl}-2H-1,2,3-triazole-4-carboxamide], the results for the IC50 (on ADAMTS4; in test [1]) were 1 µM and 0.06 µM, respectively.

As to `O=C1NC(=O)[C@](CNC(=O)c2cnn(-c3ccc(Cl)cc3Cl)n2)(C2CC2)N1` [Example 161, N-{[(4R)-4-cyclopropyl-2,5-dioxoimidazolidin-4-yl]methyl}-2-(2,4-dichlorophenyl)-2H-1,2,3-triazole-4-carboxamide], the results for the IC50 (against ADAMTS4; in test [1]) were 7.1 µM and 0.13 µM, respectively.

As to “ent-N-({4-[1-(difluoromethyl)-1H-pyrazol-5-yl]-2,5-dioxoimidazolidin-4-yl}methyl)-2-(4-fluorophenyl)-2H-1,2,3-triazole-4-carboxamide [Example 129]”, the results for the IC50 (against ADAMTS4; in test [1]) were 1.7 µM and 0.018 µM, respectively.

The values above are taken from US20230027985A1, “SUBSTITUTED HYDANTOINAMIDES AS ADAMTS7 ANTAGONISTS” (Bayer Aktiengesellschaft, priority 2019, published 2023).
